# Measurements as given in patent US20140242093A1, “METHODS AND COMPOSITIONS FOR MODULATING THE INNATE IMMUNE RESPONSE AND/OR MYOGENESIS IN A MAMMALIAN SUBJECT” (FRED HUTCHINSON CANCER RESEARCH CENTER, priority 2011, published 2014).
# Experiments:
# [1] = system: Cultured control human myoblasts; test: Beta-defensin 3 and innate immune response, real-time qPCR of IFIH1, ISG20, DEFB103; assay type: cell-based
# Method: Cultured control human myoblasts were grown to 80% confluence and infected with equivalent titers of lenti-GFP, lenti-DUX4-s and lenti-DUX4-fl in growth media supplemented with 8 μg/mL polybrene. Expression of innate immune responsive genes including IFIH1 (MDA5), ISG20 and DEFB103 were assessed by real-time qPCR as previously described at 24 hours (primer sequences below). For conditioned media, cells were infected with lenti-DUX4-fl for 12 hours, thoroughly washed 3 times with PBS and switched to fresh growth media to condition for 12 hours. Control conditioned media was produced from cells not infected with any lentivirus. Myoblasts were infected with lenti-GFP in either control conditioned media, lenti-DUX4-fl conditioned media or regular growth media supplemented with 1 μM human β-defensin 3 (Peptides International, Louisville, Ky.). Expression of innate immune responsive genes were examined after 24 hours.
# MaLR transcripts (THE1) = test: MaLR expression analysis by real-time PCR; assay type: cell-based, human; details: RT-PCR, transduced muscle cells
# Method: Real-time PCR was performed as described above. Water and minus RT controls were checked to ensure there was no amplification of these repetitive elements from residual or contaminating genomic DNA.
# [2] = system: normal skeletal muscle cells; test: RT-PCR of cancer testis antigens in transduced normal skeletal muscle cells; assay type: cell-based, human; details: RT-PCR vs lenti-GFP
# Description: The results were normalized to an internal control standard of either 18S or GAPDH.
# Human myoblasts = test: Expression array of the innate immune response to lentiviral infection versus uninfected cells; assay type: cell-based
# Method: RNA was harvested from the lenti-viral infected cells and uninfected control cells at 24 hours after infection.
substance,measurement,setting,value
"DUX4-fl: full-length DUX4 protein (SEQ ID NO:110), expressed from lentiviral or pCS2 vectors or in vitro translated",expression of DEFB103A/B (β-defensin 3),[1]; FIG. 7B,robustly induced expression of DEFB103A/B
same,induction of the innate immune response in myoblasts,"[1]; RT-qPCR, similar titers, FIG. 7A",did not
same,endogenous MaLR transcripts,MaLR transcripts (THE1),induction of endogenous MaLR transcripts
same,"induction of cancer testis antigens BAGE, MAGEA4, MAGEA9, SSX1, SSX2, SSX4 and a PRAME family member",[2],over 2 fold
same,"induction of viral RNA sensors LGP2 (DHX58), IFIH1 (MDA5), DDX58 (RIG-1)",Human myoblasts,suppresses the induction of the three primary sensors of viral RNA
same,number of the 341 genes induced within 50% of the level of induction by lenti-GFP,Human myoblasts,24 genes
same,share of lentivirus-induced genes whose induction is suppressed,Human myoblasts; 317 out of 341,93%
same,DEFB103A and DEFB103B transcripts,Human myoblasts; expression array,activated
same,CCL2 expression ratio vs GFP (.fc),"Human myoblasts; gene CCL2 NM_002982.3, vs lenti-GFP, 24 hours after infection",−2.68 log2 fold change
same,CCL2 expression ratio vs NoLenti (.fc),"Human myoblasts; gene CCL2 NM_002982.3, vs uninfected, 24 hours after infection",0.01 log2 fold change
same,CCL5 expression ratio vs GFP (.fc),"Human myoblasts; gene CCL5 NM_002985.2, vs lenti-GFP, 24 hours after infection",−2.53 log2 fold change
same,CCL5 expression ratio vs NoLenti (.fc),"Human myoblasts; gene CCL5 NM_002985.2, vs uninfected, 24 hours after infection",0.22 log2 fold change
same,CXCL1 expression ratio vs GFP (.fc),"Human myoblasts; gene CXCL1 NM_001511.1, vs lenti-GFP, 24 hours after infection",−3.52 log2 fold change
same,CXCL1 expression ratio vs NoLenti (.fc),"Human myoblasts; gene CXCL1 NM_001511.1, vs uninfected, 24 hours after infection",−0.04 log2 fold change
same,CXCL2 expression ratio vs GFP (.fc),"Human myoblasts; gene CXCL2 NM_002089.3, vs lenti-GFP, 24 hours after infection",−1.34 log2 fold change
same,CXCL2 expression ratio vs NoLenti (.fc),"Human myoblasts; gene CXCL2 NM_002089.3, vs uninfected, 24 hours after infection",−0.04 log2 fold change
same,CXCL5 expression ratio vs GFP (.fc),"Human myoblasts; gene CXCL5 NM_002994.3, vs lenti-GFP, 24 hours after infection",−2.47 log2 fold change
same,CXCL5 expression ratio vs NoLenti (.fc),"Human myoblasts; gene CXCL5 NM_002994.3, vs uninfected, 24 hours after infection",−0.37 log2 fold change
same,CXCL6 expression ratio vs GFP (.fc),"Human myoblasts; gene CXCL6 NM_002993.2, vs lenti-GFP, 24 hours after infection",−1.99 log2 fold change
same,CXCL6 expression ratio vs NoLenti (.fc),"Human myoblasts; gene CXCL6 NM_002993.2, vs uninfected, 24 hours after infection",−0.10 log2 fold change
same,DDX58 expression ratio vs GFP (.fc),"Human myoblasts; gene DDX58 NM_014314.3, vs lenti-GFP, 24 hours after infection",−2.47 log2 fold change
same,DDX58 expression ratio vs NoLenti (.fc),"Human myoblasts; gene DDX58 NM_014314.3, vs uninfected, 24 hours after infection",−0.18 log2 fold change
same,DHX58 (LGP2) expression ratio vs GFP (.fc),"Human myoblasts; gene DHX58 NM_024119.2, vs lenti-GFP, 24 hours after infection",−2.84 log2 fold change
same,DHX58 (LGP2) expression ratio vs NoLenti (.fc),"Human myoblasts; gene DHX58 NM_024119.2, vs uninfected, 24 hours after infection",−0.17 log2 fold change
same,IFI6 expression ratio vs GFP (.fc),"Human myoblasts; gene IFI6 NM_022872.2, vs lenti-GFP, 24 hours after infection",−4.24 log2 fold change
same,IFI6 expression ratio vs NoLenti (.fc),"Human myoblasts; gene IFI6 NM_022872.2, vs uninfected, 24 hours after infection",0.82 log2 fold change
same,IFI16 expression ratio vs GFP (.fc),"Human myoblasts; gene IFI16 NM_005531.1, vs lenti-GFP, 24 hours after infection",−2.01 log2 fold change
same,IFI16 expression ratio vs NoLenti (.fc),"Human myoblasts; gene IFI16 NM_005531.1, vs uninfected, 24 hours after infection",−0.14 log2 fold change
same,IFI27 expression ratio vs GFP (.fc),"Human myoblasts; gene IFI27 NM_005532.3, vs lenti-GFP, 24 hours after infection",−6.53 log2 fold change
same,IFI27 expression ratio vs NoLenti (.fc),"Human myoblasts; gene IFI27 NM_005532.3, vs uninfected, 24 hours after infection",0.92 log2 fold change
same,IFI35 expression ratio vs GFP (.fc),"Human myoblasts; gene IFI35 NM_005533.2, vs lenti-GFP, 24 hours after infection",−3.85 log2 fold change
same,IFI35 expression ratio vs NoLenti (.fc),"Human myoblasts; gene IFI35 NM_005533.2, vs uninfected, 24 hours after infection",−0.32 log2 fold change
same,IFI44L expression ratio vs GFP (.fc),"Human myoblasts; gene IFI44L NM_006820.1, vs lenti-GFP, 24 hours after infection",−5.12 log2 fold change
same,IFI44L expression ratio vs NoLenti (.fc),"Human myoblasts; gene IFI44L NM_006820.1, vs uninfected, 24 hours after infection",0.74 log2 fold change
same,IFI44 expression ratio vs GFP (.fc),"Human myoblasts; gene IFI44 NM_006417.3, vs lenti-GFP, 24 hours after infection",−2.42 log2 fold change
same,IFI44 expression ratio vs NoLenti (.fc),"Human myoblasts; gene IFI44 NM_006417.3, vs uninfected, 24 hours after infection",0.90 log2 fold change
same,IFIH1 (MDA5) expression ratio vs GFP (.fc),"Human myoblasts; gene IFIH1 NM_022168.2, vs lenti-GFP, 24 hours after infection",−3.70 log2 fold change
same,IFIH1 (MDA5) expression ratio vs NoLenti (.fc),"Human myoblasts; gene IFIH1 NM_022168.2, vs uninfected, 24 hours after infection",0.25 log2 fold change
same,IFIT1 expression ratio vs GFP (.fc),"Human myoblasts; gene IFIT1 NM_001548.3, vs lenti-GFP, 24 hours after infection",−4.38 log2 fold change
same,IFIT1 expression ratio vs NoLenti (.fc),"Human myoblasts; gene IFIT1 NM_001548.3, vs uninfected, 24 hours after infection",0.43 log2 fold change
same,IFIT3 expression ratio vs GFP (.fc),"Human myoblasts; gene IFIT3 NM_001549.2, vs lenti-GFP, 24 hours after infection",−3.86 log2 fold change
same,IFIT3 expression ratio vs NoLenti (.fc),"Human myoblasts; gene IFIT3 NM_001549.2, vs uninfected, 24 hours after infection",0.04 log2 fold change
same,IFIT5 expression ratio vs GFP (.fc),"Human myoblasts; gene IFIT5 NM_012420.1, vs lenti-GFP, 24 hours after infection",−1.65 log2 fold change
same,IFIT5 expression ratio vs NoLenti (.fc),"Human myoblasts; gene IFIT5 NM_012420.1, vs uninfected, 24 hours after infection",−0.36 log2 fold change
same,IFITM1 expression ratio vs GFP (.fc),"Human myoblasts; gene IFITM1 NM_003641.3, vs lenti-GFP, 24 hours after infection",−6.12 log2 fold change
same,IFITM1 expression ratio vs NoLenti (.fc),"Human myoblasts; gene IFITM1 NM_003641.3, vs uninfected, 24 hours after infection",0.73 log2 fold change
same,IFITM2 expression ratio vs GFP (.fc),"Human myoblasts; gene IFITM2 NM_006435.2, vs lenti-GFP, 24 hours after infection",−1.71 log2 fold change
